# Literature values in patent US20070196322A1, “Method of preparing the colon for virtual colonoscopy” (Braintree Laboratories Inc., priority 2005, published 2007).
# Where two headings read alike, the source gives them in different places.
# Tested on: patient
smiles,measurement,setting,value
"CC(=O)Oc1ccc(C(c2ccc(OC(C)=O)cc2)c2ccccn2)cc1 [Bisacodyl, bisacodyl]",time to bowel movement,enemas,about 20 minutes
same,time to bowel movement,oral administration of a tablet,three to six
same,time to bowel movement,"oral administration of a tablet, listed as bisacodyl",three to about six
same,time to bowel movement,suppositories,about an hour
